Assay results published in patent US20110207829A1, “CONTROL OF TERMITES, FIRE ANTS AND CARPENTER ANTS” (Bedoukian Research, Inc, priority 2008, published 2011).

What was measured:
[1] = test system: Formosan subterranean termites; assay: Assay for Vapor Toxicity (1 liter bottles); format: in vivo, Coptotermes formosanus
Experimental: (§1) Formosan subterranean termites were collected from bucket traps placed in City Park,
(§2) New Orleans, La. Altogether five colonies designated 1314, 1559, 1732, 1743 and 1756 were used in the tests. After collection, the termites (primarily workers and soldiers) were transferred to plastic boxes with moist spruce slats. The boxes were stored in an incubator maintained at 28° C., 65% RH, and constant darkness. Termites were used within one month of their collection.
Assay for Vapor Toxicity. This test was conducted in 960 ml (approximately 1 liter) wide-mouth clear Qorpak™ (All-Pak, Inc.) bottles with PTFE lined caps. A 60 mm diameter glass Petri dish with a moist filter paper and 50 termite workers was placed at the bottom of each bottle. The test chemical was applied to a 1 cm diameter filter paper and suspended with an insect pin from the cap-liner. Each chemical was initially tested at 1 mg then at 0.1 and 0.5 mg. Since 0.1 and 0.5 mg doses caused very low and 100% mortality respectively, the final test was carried out at 0.25 mg. Each chemical was tested with different termite colonies and replicated three times. The bottles were placed in the incubator. Mortality was recorded after 1, 2 and 3 days by quickly taking the glass Petri dish with the termites out of the bottle (with a pair of long forceps) and replacing it after removing the dead workers.

carpenter ants = assay: Carpenter ant test in sealed jars; format: in vivo; settings: within 24 hours; one drop (approximately 25 to 30 mg) on filter paper in sealed jar
Experimental: One drop (approximately 25 to 30 mg) of test compound (l-linaloo , l-carvone, and Styralyl Alcohol,) was applied to a filter paper within sealed jars (16 oz glass jar, 3½ inch diameter, 3⅞ inch high with plastic lids) containing ten carpenter ants per replicate with there being five replicates. Five negative controls with no test compounds were also run. The l-linalool, l-carvone, and styralyl alcohol each provided 100% mortality to the carpenter ants within 24 hours while the control produced 6% mortality over the same 24 hour period.

[2] = test system: Formosan subterranean termites; assay: Vapor Toxicity Under Subterranean Conditions (soil and wood); format: in vivo, Coptotermes formosanus; settings: for termites killed (vapor toxicity under subterranean conditions): 25 mg
Experimental: as §1, §2
Vapor Toxicity Under Subterranean Conditions. This test was also conducted in the
Qorpak™ bottles. A 35 by 40 by 7 mm piece of moist spruce was placed at the bottom of the bottle and covered with 40 g fine-sifted black soil. One hundred workers were released into each bottle and allowed to tunnel under the soil and into the wood. After 3 days, a test chemical was applied to a filter paper and suspended from the cap-liner. The chemicals were tested at a rate of 25 mg. […] The test was conducted with termites from 3 colonies and replicated 3 times.

[3] = test system: Formosan subterranean termites; assay: Assay for Contact Toxicity (treated filter paper in Petri dishes); format: in vivo, Coptotermes formosanus; settings: 1 day; rate of 0.5 mg/liter

Molecule	mortality to carpenter ants (carpenter ants) [%]	termites killed (vapor toxicity under subterranean conditions) ([2]; 2 days) [%]	effectiveness against termites in soil and wood [2]	other results
l-carvone	100	57	–	termites killed (vapor toxicity) ([1]; 1 day, 0.5 mg): 100%; termites killed (vapor toxicity) ([1]; 3 days, 0.25 mg): 95%; termites killed (vapor toxicity under subterranean conditions) ([2]; one day): 37%
C=C(C)C1CC=C(C)C(O)C1 (mixture of isomers) [carveol, reference compound]	–	–	totally ineffective	–
C=C[C@](C)(O)CCC=C(C)C [l-linalool]	100	69	–	termites killed (vapor toxicity) ([1]; 1 day, 0.5 mg): 100%; termites killed (vapor toxicity) ([1]; 3 days, 0.25 mg): 70%
CCC(C)(O)CCCC(C)C (stereo not drawn) [tetrahydrolinalool]	–	53	–	–
CC(C)=CCCC(C)CC=O (stereo not drawn) [citronellal, reference compound]	–	–	totally ineffective	–
CC(C)=CCC/C(C)=C/CO [geraniol, reference compound]	–	–	totally ineffective	–
CC(O)c1ccccc1 (stereo not drawn) [Styralyl Alcohol, alpha-methyl benzyl alcohol]	100	–	–	termites killed (vapor toxicity) ([1]; 2 days, 0.25 mg/liter volume): 100%; termites killed (vapor toxicity under subterranean conditions) ([2]; time not given): 11%; termites killed (contact toxicity) [3]: 98%
Cc1ccc(C(C)C)cc1 [p-cymene, reference compound]	–	–	totally ineffective	–
